Test results from ChEMBL document CHEMBL1146985, “Investigation of the mechanism of action of 3-(4-bromophenyl)-5-acyloxymethyl-2,5-dihydrofuran-2-one against Candida albicans by flow cytometry” (Bioorg Med Chem Lett, 2006).
Active and inactive are the calls of the source. The calls are words filed in the database; no cut-off is given here.

Columns and labels:
Candida albicans [1] = experiment: Antifungal activity against Candida albicans ATCC 90028 at 100 ug/ml; assay type: functional, organism-based
Candida albicans [2] = experiment: Antifungal activity against Candida albicans ATCC 90028 at 10 ug/ml; assay type: functional, organism-based

| Structure (SMILES) | Activity (Candida albicans [1]) | Activity (Candida albicans [2]) |
| --- | --- | --- |
| O=C1OC(CO)C=C1c1ccc(Br)cc1 (configuration not stated) | Active | – |
| CC(=O)OCC1C=C(c2ccc(Br)cc2)C(=O)O1 (configuration not stated) | – | Active |
